Entries after “also recorded” stand apart in the source; their conditions may differ. Read-outs that look alike come from different tables or passages of the source.
How the values were obtained:
hATX [1] = biological target: T1, hATX (Homo sapiens, UniProt Q13822)
Protocol: (§1) All biochemical studies were performed with hATX. ATX lysoPLD activity was measured by choline release from LPC[47]. […] The relative amount of released choline was measured by HVA fluorescence in a 96-well plate (Corning). Fluorescent intensity was determined at λex/λem=320/450 nm every 30 s for 90 min with a Fluorostar plate reader (BMG Labtech). Data analysis was performed using GraphPad Prism.
(§2) The experiments for determining IC50 for different bile salt inhibitors were performed by adding the named bile salt and performing serial threefold dilutions; for each bile salt concentration, the velocity of the reaction was monitored as a function of time in the lysoPLD assay as described above.
(§3) For initial comparison between competitive, uncompetitive and non-competitive inhibition by TUDCA, using the LPC and the FS3 assays, we measured the relative velocity for increasing LPC or FS3 substrate concentrations, for no-inhibitor and for three different inhibitor concentrations. The relative velocity for each data point was measured by linear regression as described above, and a Michaelis–Menten curve was created for each inhibitor concentration. We then used the following equations to describe each mode of inhibition:
(§4) where in addition to previous definitions that can be derived from equations (4–6), we define Part as the partiality of the inhibition and α as an estimated constant that determines mechanism: if α=1, the formula becomes identical to equation (4) and the inhibition mode is noncompetitive; if a is very large, then the model approaches a competitive model equation (3); if a is very small but greater than zero, the model approaches an uncompetitive model.
(§5) This procedure allowed a more robust fit to determine all parameters from all available experiments.
(§6) All modelling was performed using the regression analysis tools within the Graphpad/Prism software. The values of all derived parameters indicate mean values as obtained by nonlinear regression analysis using the formulas listed above; triplicate data were used as separate observations during the fit; ±values indicate the standard error of the mean.

hATX [2] = biological target: T1, hATX; experiment: biochemical
Protocol: as §1, §2, §3, §4, §5, §6

hATX [3] = biological target: T1, hATX; experiment: Mass spectrometry analysis of sterols associated with recombinant ATX preparation; parameters: made in house; host or cells: HEK 293 Flp-In cells; conditions: for amount found in ATX preparation: representative ATX preparation containing 2.4 pmol ATX; for Ratio to ATX: representative ATX preparation, ATX = 1.0
Protocol: Recombinant hATX preparations or buffer controls were extracted using acidified organic solvents as reported previously for lipid extractions from cells and tissues[45] with inclusion of deuterium-labelled cholesterol of oxysterol internal standards as detailed below. Samples were evaporated to dryness and reconstituted in methanol for mass spectrometry analysis.
Cholesterol and hydroxysterols were analysed using an AB Sciex 4000-Qtrap hybrid linear ion trap triple quadrupole mass spectrometer in multiple reaction monitoring mode connected to a Shimadzu HPLC. Cholesterol was analysed in positive multiple reaction monitoring mode using a Machery Nagel Nucleodur C8 gravity column, 5 μm, 125 × 2 mm^2 with a flow rate of 0.5 ml min^−1. Solvent A consists of 75/25 of methanol/water with 0.5% formic acid and 0.1% 5 mM ammonium formate and solvent B consists of 99/1 of methanol/water with 0.5% formic acid and 0.1% 5 mM ammonium formate. The cholesterol measurements were conducted exactly as reported previously with quantification accomplished by reference to a deuterated internal standard. Oxysterols were measured after dimethylglycine (DMG) derivatization using an Agilent Zorbax Eclipse XDB-C18 column, 5 μm, 4.6 × 150 mm^2 with a flow rate of 0.5 ml min^−1. Solvent A was 85% methanol with 5 mM ammonium acetate and solvent B consisted of 80:20:2 of chloroform/water/50 mM ammonium acetate. In brief, we obtained authentic standards for 25-, 24-, 27, 7-α and 4-β OH cholesterol and deuterated 25-OH cholesterol and prepared DMG derivatives exactly as previously described. We obtained product ion spectra from the doubly and singly charged DMG derivatives of these compounds that were essentially identical to those reported previously with some differences in product ion abundances that are likely attributable to differences between our mass spectrometer system and that used by Jiang et al.[46]. […] Quantification of oxysterols was accomplished by reference to the deuterated 25-OH cholesterol internal standard as explained below.
Cholesterol was detected in all ATX preparations analysed.
As reported by Jiang et al.[46], bis-DMG derivatives of hydroxylated cholesterol generate doubly charged molecular ions (m/z=287.3), which fragment to produce protonated DMG (m/z=104.1) and production of singly charged mono-DMG derivative ions (m/z=367.2). […] Accordingly, we established a selected ion-monitoring mode HPLC LC MS/MS assay that monitored these ion pairs. […] Quantification was accomplished by comparing the integrated peak area for the […]/104.1 ion pair to that of the corresponding ion pair from the deuterated 25-OH cholesterol internal standard. That ATX preparation analysed contained 1.48 pmol of 7-OH cholesterol.

[4] = test system: ATX-mediated LPAR1 endocytosis in HeLa cells; experiment: LPA1 receptor internalization assay in GFP-LPA1-transfected HeLa cells; conditions: 0.1 μM LPC, 5 nM ATX, 500 μM TUDCA, 15 min, P<0.001
Protocol: HeLa cells (obtained from American Type Culture Collection) were grown in DMEM supplemented with 10% fetal bovine serum at 37 °C under 5% CO2. For LPA1 internalization studies, HeLa cells were transient transfected with GFP-LPA1 plasmid using X-tremeGene 9 (Roche) reagent according to the manufacturer's instructions. At 10 h after transfection, the cells were rinsed with SF-DMEM and incubated in the same medium for 16–24 h before further treatments. […] Slides were examined on a Leica TCS-SP5 confocal microscope (× 62 objective) and analysed using ImageJ software.

[5] = LPC(18:1) substrate, result in words

C[C@H](CCCC(C)(C)O)[C@H]1CC[C@H]2[C@@H]3[C@H](O)C=C4C[C@@H](O)CC[C@]4(C)[C@H]3CC[C@]12C [DHCS, 7α,25-Dihydroxycholesterol]
effect on ATX-mediated LPC hydrolysis (hATX [1]; [5]): no effect | IC50 (hATX [2]): > 1000 µM

CC(C)CCC[C@@H](C)[C@H]1CC[C@H]2[C@@H]3[C@H](O)C=C4C[C@@H](O)CC[C@]4(C)[C@H]3CC[C@]12C [7HCS, 7α-hydroxycholesterol]
amount found in ATX preparation (hATX [3]): 1.48 pmol | Ratio to ATX (hATX [3]): 0.62 | effect on ATX-mediated LPC hydrolysis (hATX [1]; [5]): no effect

C[C@H](CCC(=O)NCC(=O)O)[C@H]1CC[C@H]2[C@@H]3[C@H](O)C[C@@H]4C[C@H](O)CC[C@]4(C)[C@H]3CC[C@]12C [GCDCA, Glycochenodeoxycholic acid]
effect on ATX-mediated LPC hydrolysis (hATX [1]; [5]): did not significantly change potency | IC50 (hATX [2]): 8.1 ± 0.7 µM

C[C@@H]1C[C@H]2[C@@H]3CCC4=CC(=O)C=C[C@]4(C)[C@@]3(F)[C@@H](O)C[C@]2(C)[C@@]1(O)C(=O)CO [dexamethasone]
effect on ATX-mediated LPC hydrolysis (hATX [1]; [5]): no effect

C[C@]12C=CC(=O)C=C1CC[C@@H]1[C@@H]2[C@@H](O)C[C@@]2(C)[C@H]1CC[C@]2(O)C(=O)CO [prednisolone]
effect on ATX-mediated LPC hydrolysis (hATX [1]; [5]): no effect

C[C@H](CCC(=O)NCCS(=O)(=O)O)[C@H]1CC[C@H]2[C@@H]3CC[C@@H]4C[C@H](O)CC[C@]4(C)[C@H]3C[C@H](O)[C@]12C [TDCA, Taurodeoxycholic acid]
effect on ATX-mediated LPC hydrolysis (hATX [1]; [5]): abrogate the inhibitory activity | IC50 (hATX [2]): > 1000 µM

C[C@H](CCC(=O)NCCS(=O)(=O)O)[C@H]1CC[C@H]2[C@@H]3[C@@H](O)C[C@@H]4C[C@H](O)CC[C@]4(C)[C@H]3CC[C@]12C [TUDCA, Tauroursodeoxycholic acid]
ATX-mediated LPAR1 endocytosis (number of GFP-LPA1 endosomes) [4]: reduces ATX-mediated LPAR1 endocytosis; also recorded: reduces the number of endosomes

C[C@H](CCC(=O)NCCS(=O)(=O)O)[C@H]1CC[C@H]2[C@@H]3[C@H](O)C[C@@H]4C[C@H](O)CC[C@]4(C)[C@H]3C[C@H](O)[C@]12C [TCA, Taurocholic acid]
effect on ATX-mediated LPC hydrolysis (hATX [1]): abrogate the inhibitory activity | IC50 (hATX [2]): > 1000 µM

C[C@]12CC[C@H]3[C@@H](CCC4=CC(=O)CC[C@@]43C)[C@@H]1CC[C@@H]2O [testosterone]
effect on ATX-mediated LPC hydrolysis (hATX [1]; [5]): no effect

C[C@H](CCC(=O)O)[C@H]1CC[C@H]2[C@@H]3[C@@H](O)C[C@@H]4C[C@H](O)CC[C@]4(C)[C@H]3CC[C@]12C [UDCA, Ursodeoxycholic acid]
IC50 (hATX [2]): 8.8 ± 0.5 µM

CC(C)CCC[C@@H](C)[C@H]1CC[C@H]2[C@@H]3CC=C4C[C@@H](O)CC[C@]4(C)[C@H]3CC[C@]12C [Cholesterol]
amount found in ATX preparation (hATX [3]): 0.35 pmol | Ratio to ATX (hATX [3]): 0.15
